Patent US8796268B2, “Heteroaryls and uses thereof” (Millennium Pharmaceuticals, Inc., priority 2010, dated 2014)
Where a name gives a salt, the structure may show the parent alone. Read-outs that look alike come from different tables or passages of the source.

Tests used:
Assay type in all cases: biochemical
Human PI3K delta = target: T1, Human PI3K delta (Homo sapiens, UniProt O00329); assay: Human PI3K delta enzyme assay (HTRF); details: for p110 delta Percent Inhibition: concentration not given, b1389 states 1.0 μM for PI3K δ and γ
T1 construct: His (N); host or cells: SF9 insect cells (baculovirus)
Procedure, shortened: (§1)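 Compounds were mixed with 25 uM ATP, then with 3.5 uM di-C8 PI(4,5)P2 and His-tagged PI3K isoform (β 5.25 nM, δ 0.75 nM, γ 5 nM) at pH 7.00. After 30 min at room temperature, EDTA stopped the reaction and PIP3 was measured by HTRF over 1 h.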

Human VPS34 = target: T2, Human VPS34 (Homo sapiens, UniProt Q8NEB9); assay: Human VPS34 enzyme assay (Adapta Universal Kinase Assay); details: at a 1.0 μM concentration; read-out: VPS34 Percent Inhibition
T2 construct: GST (with thrombin site, pDEST20-Thrombin) (N); host or cells: SF9 insect cells (baculovirus)
Description: The catalytic subunits of PI3Ks are cloned into either pDEST8(p110 alpha) or pDEST10(p110beta, p110delta, and p110gamma) as N-terminal His tagged fusion proteins using the Gateway system (Invitrogen, catalog#11804-010 for pDEST8 and 11806-015 for pDEST10). The sequences are verified before recombinant protein expression using the Baculovirus Expression System with Gateway® Technology. The accession numbers for the subunits are as follows: • p110 alpha (GB:U79143) • p110beta (GB: S67334) • p110delta (GB: U86453) • p110gamma (GB: X83368) • The regulatory subunits of PI3Ks are cloned into pDEST8 as un-tagged protein using the Gateway system (Catalog#11804-010). The sequences are verified before recombinant protein expression using the Baculovirus Expression System with Gateway® Technology. The accession numbers for the subunits are as following: • p85 alpha (GB: BC030815) • p101(GB: AB028925) • VPS34 (accession number GB:BC033004) is cloned into pDEST20—Thombin as N-terminal GST tagged fusion proteins using the Gateway system (Invitrogen, catalog#11804-013). The sequences are verified before recombinant protein expression using the Baculovirus Expression System with Gateway® Technology.
For expression VPS34 was infected at 1MOI in SF9 cells and harvested 72 hours post infection.
For purification, VPS34 is purified by Glutathione Sepharose 4 Fast Flow (GE Healthcare #17-5132-03) followed by HiTrap Q (GE Healthcare #17-1153-01).
3) VPS34 is assayed using Adapta™ Universal Kinase Assay Kit (Invitrogen).
4) Human VPS34 enzyme assay method
100 nL compounds in DMSO are added to wells of a 384 well microtitre plate (Greiner 780076). At room temperature: 5 ul VPS34 reaction buffer (Invitrogen Assay Buffer Q (diluted 1 in 5 with nanopure water) plus 2 mM DTT and 2 mM MnCl2) containing ATP (20 uM, Promega) and 200 uM PI—PS substrate (Invitrogen PV5122) is added followed immediately by 5 ul VPS34 reaction buffer (as above) containing VPS34 (5 nM, Millennium Protein Sciences Group) and the mixture is incubated with shaking at room temperature for 1 hour. Then 5 ul VPS34 stop-detect mix (as per Invitrogen Adapta Assay kit (PV5009) instructions (contains kinase quench buffer, TR-FRET buffer, Adapta Eu anti-ADP antibody and Alexa Fluor 647 ADP tracer)) is added to quench the reaction. The plates are then incubated for 30 minutes at room temperature with shaking and then read on a BMG PheraStar Plus reader.
For the assay methods described above, test compound percent inhibition, at various concentrations, is calculated relative to control (DMSO and EDTA) treated samples. Compound concentration versus percent inhibition curves are fitted to generate IC50 values. One skilled in the art will appreciate that the values generated either as percentage inhibition at a single concentration or IC50 values are subject to experimental variation.

Human PI3K gamma = target: T3, Human PI3K gamma (Homo sapiens, UniProt P48736); assay: Human PI3K gamma enzyme assay (HTRF)
T3 construct: His (N); host or cells: SF9 insect cells (baculovirus)
Procedure, shortened: as §1

Human PI3K alpha = target: T4, Human PI3K alpha (Homo sapiens, UniProt P42336); assay: Human PI3K alpha enzyme assay (HTRF)
T4 construct: His (N); host or cells: SF9 insect cells (baculovirus)

Human PI3K beta = target: T5, Human PI3K beta (Homo sapiens, UniProt P42338); assay: Human PI3K beta enzyme assay (HTRF)
T5 construct: His (N); host or cells: SF9 insect cells (baculovirus)
Procedure, shortened: as §1

[1] = at a 1.0 μM concentration, read-out: PI3Kδ Percent Inhibition
[2] = at a 1.0 μM concentration, read-out: PI3Kγ Percent Inhibition
[3] = at a 1.1 μM concentration, read-out: PI3Kα Percent Inhibition
[4] = at a 1.1 μM concentration, read-out: PI3β Percent Inhibition
[5] = concentration not given, b1389 states 1.0 μM for PI3K δ and γ
[6] = concentration not given, b1387 states 1.1 μM for PI3K α and β
[7] = read-out: p110 delta Percent Inhibition
[8] = read-out: p110 gamma Percent Inhibition
[9] = read-out: p110 alpha Percent Inhibition
[10] = read-out: p110 beta Percent Inhibition

T5 sequence (P42338 whole entry): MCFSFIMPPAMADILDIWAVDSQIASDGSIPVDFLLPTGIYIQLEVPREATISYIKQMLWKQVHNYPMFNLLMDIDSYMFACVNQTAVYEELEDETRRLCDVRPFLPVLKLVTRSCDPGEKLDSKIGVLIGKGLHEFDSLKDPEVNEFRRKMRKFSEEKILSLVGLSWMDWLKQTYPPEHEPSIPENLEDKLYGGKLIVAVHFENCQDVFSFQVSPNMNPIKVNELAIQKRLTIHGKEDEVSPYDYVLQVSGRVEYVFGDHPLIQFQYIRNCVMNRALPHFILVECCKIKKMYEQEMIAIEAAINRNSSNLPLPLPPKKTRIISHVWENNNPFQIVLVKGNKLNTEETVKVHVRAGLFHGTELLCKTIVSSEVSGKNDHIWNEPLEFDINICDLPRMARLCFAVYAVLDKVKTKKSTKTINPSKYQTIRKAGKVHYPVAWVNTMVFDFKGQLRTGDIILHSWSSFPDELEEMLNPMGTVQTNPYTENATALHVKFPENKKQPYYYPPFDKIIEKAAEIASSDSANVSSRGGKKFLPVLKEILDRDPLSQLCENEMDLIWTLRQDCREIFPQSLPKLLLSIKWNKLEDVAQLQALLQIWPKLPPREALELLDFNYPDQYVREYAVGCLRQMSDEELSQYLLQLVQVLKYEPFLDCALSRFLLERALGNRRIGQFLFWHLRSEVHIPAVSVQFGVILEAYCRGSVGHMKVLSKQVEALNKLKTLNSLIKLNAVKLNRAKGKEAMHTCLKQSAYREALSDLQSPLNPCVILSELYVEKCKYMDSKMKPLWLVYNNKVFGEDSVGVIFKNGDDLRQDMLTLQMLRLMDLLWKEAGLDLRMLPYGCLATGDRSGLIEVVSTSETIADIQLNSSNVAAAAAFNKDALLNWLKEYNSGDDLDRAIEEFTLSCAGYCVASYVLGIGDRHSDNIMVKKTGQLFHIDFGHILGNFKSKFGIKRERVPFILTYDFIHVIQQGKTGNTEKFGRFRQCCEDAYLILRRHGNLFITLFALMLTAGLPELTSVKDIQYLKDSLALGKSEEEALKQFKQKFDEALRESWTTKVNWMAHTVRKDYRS
T5 sequence (P27986 whole entry partner): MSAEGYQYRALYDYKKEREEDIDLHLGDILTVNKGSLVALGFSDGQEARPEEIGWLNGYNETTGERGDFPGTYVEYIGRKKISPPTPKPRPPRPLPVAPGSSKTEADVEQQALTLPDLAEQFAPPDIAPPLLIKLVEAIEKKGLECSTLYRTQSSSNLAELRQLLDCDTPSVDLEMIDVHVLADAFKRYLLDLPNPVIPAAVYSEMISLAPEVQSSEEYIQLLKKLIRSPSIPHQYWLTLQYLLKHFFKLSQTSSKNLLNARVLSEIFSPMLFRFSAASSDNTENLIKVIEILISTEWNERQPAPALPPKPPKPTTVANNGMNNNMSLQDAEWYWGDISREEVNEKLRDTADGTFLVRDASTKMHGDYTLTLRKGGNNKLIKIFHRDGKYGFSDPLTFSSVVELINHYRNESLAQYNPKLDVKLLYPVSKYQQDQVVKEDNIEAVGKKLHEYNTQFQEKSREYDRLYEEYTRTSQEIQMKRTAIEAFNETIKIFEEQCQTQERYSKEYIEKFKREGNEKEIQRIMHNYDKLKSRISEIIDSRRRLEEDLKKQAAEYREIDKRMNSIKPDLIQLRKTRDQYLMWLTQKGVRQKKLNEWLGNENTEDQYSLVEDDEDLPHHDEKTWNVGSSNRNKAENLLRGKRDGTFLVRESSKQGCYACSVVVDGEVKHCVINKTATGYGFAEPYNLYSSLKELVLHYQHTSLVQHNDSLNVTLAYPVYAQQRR
T1 sequence (O00329 whole entry): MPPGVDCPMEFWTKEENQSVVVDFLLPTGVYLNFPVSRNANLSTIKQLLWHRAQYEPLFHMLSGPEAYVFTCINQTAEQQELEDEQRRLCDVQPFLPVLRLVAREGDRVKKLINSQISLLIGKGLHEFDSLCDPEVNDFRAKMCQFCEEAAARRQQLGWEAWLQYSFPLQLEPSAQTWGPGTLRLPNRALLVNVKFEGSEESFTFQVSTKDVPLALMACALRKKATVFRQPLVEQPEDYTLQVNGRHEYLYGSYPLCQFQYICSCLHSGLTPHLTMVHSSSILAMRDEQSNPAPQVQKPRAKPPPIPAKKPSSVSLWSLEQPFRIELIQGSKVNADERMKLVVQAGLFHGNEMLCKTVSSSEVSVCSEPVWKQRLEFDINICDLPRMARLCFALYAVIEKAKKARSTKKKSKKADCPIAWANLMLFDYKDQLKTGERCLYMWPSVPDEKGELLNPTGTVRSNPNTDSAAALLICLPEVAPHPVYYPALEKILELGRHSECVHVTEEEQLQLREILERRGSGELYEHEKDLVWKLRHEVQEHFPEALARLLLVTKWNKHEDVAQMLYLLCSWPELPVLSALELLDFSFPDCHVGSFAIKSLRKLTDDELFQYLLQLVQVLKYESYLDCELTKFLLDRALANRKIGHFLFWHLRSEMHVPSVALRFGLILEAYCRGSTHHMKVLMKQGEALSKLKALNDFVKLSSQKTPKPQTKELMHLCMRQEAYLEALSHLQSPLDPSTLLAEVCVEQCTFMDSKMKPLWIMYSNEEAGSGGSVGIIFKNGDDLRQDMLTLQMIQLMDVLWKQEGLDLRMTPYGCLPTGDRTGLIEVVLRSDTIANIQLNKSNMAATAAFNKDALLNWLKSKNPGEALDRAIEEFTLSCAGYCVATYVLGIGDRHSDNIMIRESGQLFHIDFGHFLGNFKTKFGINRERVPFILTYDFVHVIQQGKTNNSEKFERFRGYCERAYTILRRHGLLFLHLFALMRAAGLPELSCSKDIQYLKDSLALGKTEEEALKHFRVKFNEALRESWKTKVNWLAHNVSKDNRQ
T1 sequence (P27986 whole entry partner): as the sequence (P27986 whole entry partner) above
T4 sequence (P42336 whole entry): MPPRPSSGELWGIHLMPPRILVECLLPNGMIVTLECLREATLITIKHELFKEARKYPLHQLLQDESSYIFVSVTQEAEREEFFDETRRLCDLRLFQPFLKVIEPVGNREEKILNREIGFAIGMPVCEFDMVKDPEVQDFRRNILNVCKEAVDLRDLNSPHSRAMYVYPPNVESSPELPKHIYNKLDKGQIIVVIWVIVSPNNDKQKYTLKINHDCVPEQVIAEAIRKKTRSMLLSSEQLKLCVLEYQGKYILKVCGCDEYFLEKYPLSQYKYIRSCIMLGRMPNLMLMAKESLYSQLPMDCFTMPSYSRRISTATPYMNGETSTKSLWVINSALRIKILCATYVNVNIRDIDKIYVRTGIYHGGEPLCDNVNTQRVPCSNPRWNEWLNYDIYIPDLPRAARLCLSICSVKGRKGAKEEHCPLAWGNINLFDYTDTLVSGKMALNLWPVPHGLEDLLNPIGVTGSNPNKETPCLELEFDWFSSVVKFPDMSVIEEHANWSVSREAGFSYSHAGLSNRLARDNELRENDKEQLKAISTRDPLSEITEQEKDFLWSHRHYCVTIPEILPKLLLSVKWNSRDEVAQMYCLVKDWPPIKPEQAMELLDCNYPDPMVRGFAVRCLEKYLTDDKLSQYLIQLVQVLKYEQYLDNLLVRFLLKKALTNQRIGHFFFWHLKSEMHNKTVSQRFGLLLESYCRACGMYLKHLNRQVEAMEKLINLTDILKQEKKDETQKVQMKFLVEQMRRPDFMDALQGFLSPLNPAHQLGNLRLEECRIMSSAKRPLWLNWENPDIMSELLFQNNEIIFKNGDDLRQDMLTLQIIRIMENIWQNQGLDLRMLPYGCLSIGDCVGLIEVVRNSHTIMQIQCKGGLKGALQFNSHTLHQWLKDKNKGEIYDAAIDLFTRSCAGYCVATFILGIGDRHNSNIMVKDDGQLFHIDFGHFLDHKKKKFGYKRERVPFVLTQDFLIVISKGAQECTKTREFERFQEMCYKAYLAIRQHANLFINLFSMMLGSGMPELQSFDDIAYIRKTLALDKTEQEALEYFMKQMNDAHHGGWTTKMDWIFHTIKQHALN
T4 sequence (P27986 whole entry partner): as the sequence (P27986 whole entry partner) above
T2 sequence (Q8NEB9 whole entry): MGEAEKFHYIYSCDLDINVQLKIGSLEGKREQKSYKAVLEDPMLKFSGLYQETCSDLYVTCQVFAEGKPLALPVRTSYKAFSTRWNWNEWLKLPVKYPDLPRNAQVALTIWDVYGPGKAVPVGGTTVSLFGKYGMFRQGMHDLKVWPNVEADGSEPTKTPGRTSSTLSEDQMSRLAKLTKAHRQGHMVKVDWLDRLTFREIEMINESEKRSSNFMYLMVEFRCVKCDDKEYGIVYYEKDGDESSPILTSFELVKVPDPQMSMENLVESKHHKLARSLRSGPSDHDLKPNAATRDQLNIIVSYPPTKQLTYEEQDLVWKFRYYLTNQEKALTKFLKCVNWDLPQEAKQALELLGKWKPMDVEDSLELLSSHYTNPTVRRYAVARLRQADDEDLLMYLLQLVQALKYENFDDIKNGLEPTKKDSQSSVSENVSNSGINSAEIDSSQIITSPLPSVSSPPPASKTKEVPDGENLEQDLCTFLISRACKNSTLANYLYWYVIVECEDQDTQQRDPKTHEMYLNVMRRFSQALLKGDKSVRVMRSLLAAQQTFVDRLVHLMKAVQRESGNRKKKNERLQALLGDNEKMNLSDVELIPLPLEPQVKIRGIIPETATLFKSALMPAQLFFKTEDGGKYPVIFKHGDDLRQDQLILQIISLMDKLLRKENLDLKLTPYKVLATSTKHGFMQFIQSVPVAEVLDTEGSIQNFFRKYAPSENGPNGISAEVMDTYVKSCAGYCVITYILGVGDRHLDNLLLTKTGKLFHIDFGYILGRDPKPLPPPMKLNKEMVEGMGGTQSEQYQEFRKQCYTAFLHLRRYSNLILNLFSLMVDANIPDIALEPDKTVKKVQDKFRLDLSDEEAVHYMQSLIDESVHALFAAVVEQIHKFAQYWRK

SMILES	inhibition at 1 µM (Human PI3K delta; [1])	inhibition at 1 µM (Human VPS34)	inhibition at 1 µM (Human PI3K gamma; [2])	inhibition at 1.1 µM (Human PI3K alpha; [3])	inhibition at 1.1 µM (Human PI3K beta; [4])	other results
N#Cc1ccc(Cc2nc(N3CCOCC3)sc2C(=O)O)cc1 [Compound 93]	46%	19.2%	9.5%	9%	80%	
N#Cc1c(N2CCOCC2)sc(C(=O)O)c1Cc1ccc(Cl)c(F)c1 [Compound 94, 3-(4-chloro-3-fluorobenzyl)-4-cyano-5-morpholin-4-ylthiophene-2-carboxylic acid]	102%	30.6%	52.6%	58%	97%	
N#Cc1c(C2=CCOCC2)sc(C(=O)O)c1Cc1ccc(Cl)cc1 [Compound 95, 3-(4-chlorobenzyl)-4-cyano-5-(3,6-dihydro-2H-pyran-4-yl)thiophene-2-carboxylic acid]	86.1%	167%	23.9%	68%	101%	
N#Cc1c(N2CCOCC2)sc(C(=O)O)c1Cc1ccc(Cl)cc1Cl [Compound 96]	96%	47.8%	36.2%	58%	109%	
N#Cc1c(N2CCOCC2)sc(C(=O)O)c1Cc1ccc(F)cc1 [Compound 97]	89.8%	45%	17.8%	53%	101%	
O=C(O)c1sc(N2CCOCC2)nc1Cc1ccc2ccccc2c1 [Compound 98]	108%	68.9%	67.6%	58%	111%	
O=C(O)c1sc(N2CCOCC2)nc1Cc1ccc(F)cc1Cl [Compound 99]	55.4%	46.7%	6.4%	12%	72%	
O=C(O)c1sc(C2=CCOCC2)nc1Cc1ccc(Cl)cc1 [Compound 100, 4-(4-chlorobenzyl)-2-(3,6-dihydro-2H-pyran-4-yl)-1,3-thiazole-5-carboxylic acid]	65.5%	36.6%	13.2%	20%	98%	
COc1ccc(Cc2nc(N3CCOCC3)sc2C(=O)O)cc1 [Compound 103]	38.6%	7.2%	6.4%	2%	71%	
O=C(O)c1sc(N2CCOCC2)nc1Cc1ccc(Cl)cc1Cl [Compound 104]	93%	63.2%	28.8%	26%	109%	
COc1ccc(Cc2c(C(=O)O)sc(N3CCOCC3)c2C#N)cc1 [Compound 105]	51.2%	22.6%	9.8%	21%	98%	
N#Cc1c(N2CCOCC2)sc(C(=O)O)c1Cc1ccc(Br)cc1 [Compound 106]	88.8%	34.4%	51.8%	58%	103%	
COc1ccc(Cc2c(C(=O)O)sc(N3CCOCC3)c2C#N)cc1Cl [Compound 108]	99.6%	62.4%	38.1%	44%	100%	
O=C(O)c1sc(N2CCOCC2)nc1Cc1ccc(OC(F)(F)F)cc1 [Compound 109]	35.4%	24%	3.9%	6%	76%	
O=C(O)c1sc(N2CCOCC2)nc1Cc1ccc(C(F)(F)F)cc1 [Compound 111]	60.5%	46.8%	6.9%	7%	77%	
N#Cc1c(N2CCOCC2)sc(C(=O)O)c1Cc1ccc2ccccc2c1 [Compound 112]	114%	37.8%	69%	95%	110%	
N#Cc1c(N2CCOCC2)sc(C(=O)O)c1C(N)c1ccc(Cl)cc1 (centres unmarked) [Compound 113, 3-[amino(4-chlorophenyl)methyl]-4-cyano-5-(morpholin-4-yl)thiophene-2-carboxylic acid hydrochloride]	78.8%	18.1%	32.5%	25%	100%	
O=C(O)c1sc(N2CCOCC2)nc1Cc1ccc(Cl)c(Cl)c1 [Compound 114]	113%	131%	56.9%	40%	106%	
N#Cc1ccc(Cc2c(C(=O)O)sc(N3CCOCC3)c2C#N)cc1 [Compound 115]	63%	39.7%	12%	45%	97%	
N#Cc1c(N2CCOCC2)sc(C(=O)O)c1C(CCF)c1ccc2ccccc2c1 (centres unmarked) [Compound 365]						p110 delta Percent Inhibition (Human PI3K delta): 112%; p110 gamma Percent Inhibition (Human PI3K gamma; [5]): 63%; p110 alpha Percent Inhibition (Human PI3K alpha; [6]): 105%; p110 beta Percent Inhibition (Human PI3K beta; [6]): 117%
CC(c1ccc(Cl)c(Cl)c1)c1c(C(=O)O)sc(N2CCOCC2)c1C#N (centres unmarked) [Compound 366]						p110 delta Percent Inhibition (Human PI3K delta): 113%; p110 gamma Percent Inhibition (Human PI3K gamma; [5]): 77%; p110 alpha Percent Inhibition (Human PI3K alpha; [6]): 66%; p110 beta Percent Inhibition (Human PI3K beta; [6]): 113%
CC(c1ccc2ccccc2c1)c1c(C(=O)O)sc(N2CCOCC2)c1C#N (centres unmarked) [Compound 367, 4-cyano-5-(morpholin-4-yl)-3-[1-(2-naphthyl)ethyl]thiophene-2-carboxylic acid]						inhibition at 1 µM (Human PI3K delta; [7]): 116%; inhibition at 1 µM (Human PI3K gamma; [8]): 72%; inhibition at 1.1 µM (Human PI3K alpha; [9]): 99%; inhibition at 1.1 µM (Human PI3K beta; [10]): 110%
COC(c1ccc2ccccc2c1)c1c(C(=O)O)sc(N2CCOCC2)c1C#N (centres unmarked) [Compound 368, 4-cyano-3-[methoxy(2-naphthyl)methyl]-5-(morpholin-4-yl)thiophene-2-carboxylic acid]						p110 delta Percent Inhibition (Human PI3K delta): 113%; inhibition at 1 µM (Human PI3K gamma; concentration not given, b1389 states 1.0 μM for PI3K δ and γ, read-out: p110 gamma Percent Inhibition): 87%; inhibition at 1.1 µM (Human PI3K alpha; concentration not given, b1387 states 1.1 μM for PI3K α and β, read-out: p110 alpha Percent Inhibition): 89%; inhibition at 1.1 µM (Human PI3K beta; concentration not given, b1387 states 1.1 μM for PI3K α and β, read-out: p110 beta Percent Inhibition): 112%
CC(c1ccc2cc(F)ccc2c1)c1c(C(=O)O)sc(N2CCOCC2)c1C#N (centres unmarked) [Compound 369]						p110 delta Percent Inhibition (Human PI3K delta): 109%; p110 gamma Percent Inhibition (Human PI3K gamma; [5]): 65%; p110 alpha Percent Inhibition (Human PI3K alpha; [6]): 109%; p110 beta Percent Inhibition (Human PI3K beta; [6]): 115%
O=C(O)c1[se]c(N2CCOCC2)nc1Cc1ccc(Cl)cc1 [Compound 370, 4-(4-chlorobenzyl)-2-morpholino-1,3-selenazole-5-carboxylic acid]						inhibition at 1 µM (Human PI3K delta; [7]): 62%; inhibition at 1 µM (Human PI3K gamma; [8]): 12%; inhibition at 1.1 µM (Human PI3K alpha; [9]): 22%; inhibition at 1.1 µM (Human PI3K beta; [10]): 98%
